# Source: BindingDB's records for doi:10.1016/j.chembiol.2015.08.013 (Aston University, 2015)
# Assays:
# Assay in all cases: TG Activity Assays
# [1] = biological target: T1, Protein-glutamine gamma-glutamyltransferase K (Homo sapiens, UniProt P22735)
# T1 sequence (P22735 whole entry): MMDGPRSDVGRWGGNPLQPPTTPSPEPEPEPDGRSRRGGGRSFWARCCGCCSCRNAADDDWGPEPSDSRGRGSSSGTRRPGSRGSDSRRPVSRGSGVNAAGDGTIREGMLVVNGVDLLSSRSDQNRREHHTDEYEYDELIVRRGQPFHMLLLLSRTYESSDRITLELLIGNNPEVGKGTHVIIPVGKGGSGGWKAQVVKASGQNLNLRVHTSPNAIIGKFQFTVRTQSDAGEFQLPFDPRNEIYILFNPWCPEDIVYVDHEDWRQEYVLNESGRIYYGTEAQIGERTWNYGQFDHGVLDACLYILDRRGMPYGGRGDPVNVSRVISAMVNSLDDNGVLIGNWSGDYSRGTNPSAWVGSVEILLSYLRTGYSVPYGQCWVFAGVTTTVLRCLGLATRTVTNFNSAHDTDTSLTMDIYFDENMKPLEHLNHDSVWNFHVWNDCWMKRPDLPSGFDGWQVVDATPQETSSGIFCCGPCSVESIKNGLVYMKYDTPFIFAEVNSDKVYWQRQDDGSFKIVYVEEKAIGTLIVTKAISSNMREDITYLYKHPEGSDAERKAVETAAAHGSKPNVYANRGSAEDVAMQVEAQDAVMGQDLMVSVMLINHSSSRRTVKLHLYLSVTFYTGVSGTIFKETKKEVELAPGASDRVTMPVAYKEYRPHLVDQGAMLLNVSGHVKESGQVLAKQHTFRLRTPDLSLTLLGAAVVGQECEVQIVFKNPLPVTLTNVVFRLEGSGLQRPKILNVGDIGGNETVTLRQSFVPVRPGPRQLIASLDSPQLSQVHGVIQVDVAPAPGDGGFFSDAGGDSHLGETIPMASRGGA
# Description: (§1) The incorporated biotinylated peptides were measured using horseradish peroxidase-conjugated streptavidin and then measured using o-phenylenediamine dihydrochloride substrates. The absorbance was measured at 490 nm using a microplat
# [2] = biological target: T2, Protein-glutamine gamma-glutamyltransferase E (Homo sapiens, UniProt Q08188)
# T2 sequence (Q08188 whole entry): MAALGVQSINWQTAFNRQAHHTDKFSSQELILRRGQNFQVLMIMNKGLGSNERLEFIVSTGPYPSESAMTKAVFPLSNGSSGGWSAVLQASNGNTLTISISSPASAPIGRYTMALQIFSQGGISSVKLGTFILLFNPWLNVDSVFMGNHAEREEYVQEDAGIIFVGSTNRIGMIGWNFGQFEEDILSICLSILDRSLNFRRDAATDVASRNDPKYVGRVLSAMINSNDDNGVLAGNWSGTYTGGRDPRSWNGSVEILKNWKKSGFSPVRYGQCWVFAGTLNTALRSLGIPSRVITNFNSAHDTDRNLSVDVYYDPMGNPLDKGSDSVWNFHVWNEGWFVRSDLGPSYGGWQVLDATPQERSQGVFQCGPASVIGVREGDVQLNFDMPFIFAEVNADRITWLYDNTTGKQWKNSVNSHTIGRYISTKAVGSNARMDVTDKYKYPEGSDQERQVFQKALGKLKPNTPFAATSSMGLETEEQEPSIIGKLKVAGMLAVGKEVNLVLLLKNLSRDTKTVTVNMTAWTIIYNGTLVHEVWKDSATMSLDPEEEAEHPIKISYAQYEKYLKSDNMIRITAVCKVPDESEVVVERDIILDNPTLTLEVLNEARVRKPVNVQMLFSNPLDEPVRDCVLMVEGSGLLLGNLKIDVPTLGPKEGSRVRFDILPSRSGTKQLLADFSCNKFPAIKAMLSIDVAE
# Description: as §1
# [3] = biological target: T3, Protein-glutamine gamma-glutamyltransferase 2 (Homo sapiens, UniProt P21980)
# T3 sequence (P21980 whole entry): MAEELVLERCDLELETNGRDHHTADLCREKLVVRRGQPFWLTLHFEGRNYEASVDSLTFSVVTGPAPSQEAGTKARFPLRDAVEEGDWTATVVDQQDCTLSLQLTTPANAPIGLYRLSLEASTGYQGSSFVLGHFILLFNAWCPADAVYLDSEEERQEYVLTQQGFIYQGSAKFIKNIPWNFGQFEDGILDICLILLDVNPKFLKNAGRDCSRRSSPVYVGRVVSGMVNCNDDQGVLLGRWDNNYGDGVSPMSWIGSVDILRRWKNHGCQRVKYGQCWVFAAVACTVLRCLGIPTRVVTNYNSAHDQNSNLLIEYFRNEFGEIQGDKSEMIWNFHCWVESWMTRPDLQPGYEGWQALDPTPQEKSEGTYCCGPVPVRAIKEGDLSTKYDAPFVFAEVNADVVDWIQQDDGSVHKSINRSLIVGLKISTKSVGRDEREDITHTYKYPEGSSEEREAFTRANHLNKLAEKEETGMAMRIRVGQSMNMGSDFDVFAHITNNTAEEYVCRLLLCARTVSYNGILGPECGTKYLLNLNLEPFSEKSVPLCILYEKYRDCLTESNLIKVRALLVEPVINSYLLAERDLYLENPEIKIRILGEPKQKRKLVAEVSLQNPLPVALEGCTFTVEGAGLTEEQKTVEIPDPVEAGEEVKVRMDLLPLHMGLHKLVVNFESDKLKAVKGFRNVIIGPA
# Description: as §1
SMILES,IC50 [1],IC50 [2],IC50 [3]
O=C(CBr)NCC(=O)N1CCN(C(=O)OCCC23CC4CC(CC(C4)C2)C3)CC1 [2-(1-Adamantyl)ethyl 4-[2-[(2-bromoacetyl)amino]acetyl]piperazine-1-carboxylate (6g)],3 µM,50 µM,–
C=CC(=O)NCC(=O)N1CCN(C(=O)OCc2ccc(C(=O)OC)cc2)CC1 [(4-Methoxycarbonylphenyl)methyl 4-[2-(prop-2-enoylamino)acetyl]piperazine-1-carboxylate (3b)],–,–,6.3 µM
C[S+](C)CC(=O)NCC(=O)N1CCN(C(=O)OCc2ccccc2)CC1 [[2-[[2-(4-Benzyloxycarbonylpiperazin-1-yl)-2-oxo-ethyl]amino]-2-oxo-ethyl]-dimethylsulfonium bromide (1a)],> 100 µM,> 100 µM,1.4 µM
COC(=O)c1ccc(COC(=O)N2CCN(C(=O)CNC(=O)C[S+](C)C)CC2)cc1 [[2-[[2-[4-[(4-Methoxycarbonylphenyl)methoxycarbonyl]piperazin-1-yl]-2-oxo-ethyl]-amino]-2-oxo-ethyl]-dimethyl-sulfonium bromide (1b)],> 100 µM,> 100 µM,3.3 µM
"Cc1c(C)[n+](C)c(SCC(=O)NCC(=O)N2CCN(C(=O)OCc3ccccc3)CC2)n1C [Benzyl 4-[2-[[2-(1,3,4,5-tetramethylimidazol-1-ium-2-yl)sulfanylacetyl]amino]-acetyl]-piperazine-1-carboxylate bromide (1s)]",–,–,100 µM
C[S+](C)CC(=O)NCC(=O)N1CCN(C(=O)OC(C)(C)C)CC1 [[2-[[2-(4-tert-Butoxycarbonylpiperazin-1-yl)-2-oxo-ethyl]amino]-2-oxo-ethyl]-dimethylsulfonium bromide (1m)],> 100 µM,> 100 µM,0.273 µM
C=CC(=O)NCC(=O)N1CCN(C(=O)OCc2ccccc2)CC1 [Benzyl 4-[2-(prop-2-enoylamino)acetyl]piperazine-1-carboxylate (3a)],–,–,5.92 µM
C=CS(=O)(=O)NCC(=O)N1CCN(C(=O)OCc2ccccc2)CC1 [Benzyl 4-[2-(vinylsulfonylamino)acetyl]piperazine-1-carboxylate (2a)],–,–,1.73 µM
C[S+](C)CC(=O)NCC(=O)N1CCN(C(=O)OCCC23CC4CC(CC(C4)C2)C3)CC1 [[2-[[2-[4-[2-(1-Adamantyl)ethoxycarbonyl]piperazin-1-yl]-2-oxo-ethyl]amino]-2-oxo-ethyl]-dimethyl-sulfonium bromide (1g)],–,–,3.15 µM
C=CC(=O)NCC(=O)N1CCN(S(=O)(=O)c2cccc3c(N(C)C)cccc23)CC1 [N-[2-[4-[[5-(dimethylamino)-1-naphthyl]sulfonyl]piperazin-1-yl]-2-oxo-ethyl]prop-2-enamide (3h)],25 µM,20 µM,–

# Now from value to molecule:
IC50 [1],IC50 [2],IC50 [3],SMILES
–,–,0.00665 µM,COC(=O)c1ccc2cc(COC(=O)N3CCN(C(=O)CNC(=O)CCl)CC3)ccc2c1 [(6-Methoxycarbonyl-2-naphthyl)methyl 4-[2-[(2-chloroacetyl)amino]acetyl]piperazine-1-carboxylate (6n)]
5 µM,65 µM,0.015 µM,COC(=O)c1ccc2cc(COC(=O)N3CCN(C(=O)CNC(=O)CBr)CC3)ccc2c1 [(6-Methoxycarbonyl-2-naphthyl)methyl 4-[2-[(2-bromoacetyl)amino]acetyl]piperazine-1-carboxylate (6d)]
–,–,0.0021 µM,COC(=O)c1ccc(COC(=O)N2CCN(C(=O)CNC(=O)CBr)CC2)cc1 [(4-Methoxycarbonylphenyl)methyl 4-[2-[(2-bromoacetyl)amino]acetyl]piperazine-1-carboxylate (6b)]
> 100 µM,> 100 µM,0.9 µM,C=CC(=O)NCC(=O)N1CCN(C(=O)OCCC23CC4CC(CC(C4)C2)C3)CC1 [2-(1-Adamantyl)ethyl 4-[2-(prop-2-enoylamino)acetyl]piperazine-1-carboxylate (3g)]
> 100 µM,> 100 µM,1.07 µM,C[S+](C)CC(=O)NCC(=O)N1CCN(C(=O)OCc2ccc3ccccc3c2)CC1 [Dimethyl-[2-[[2-[4-(2-naphthylmethoxycarbonyl)piperazin-1-yl]-2-oxo-ethyl]amino]-2-oxo-ethyl]sulfonium bromide (1c)]
–,–,0.875 µM,C=CS(=O)(=O)NCC(=O)N1CCN(C(=O)C23CC4CC(CC(C4)C2)C3)CC1 [N-[2-[4-(adamantane-1-carbonyl)piperazin-1-yl]-2-oxo-ethyl]ethenesulfonamide (2e)]
1 µM,70 µM,0.0039 µM,O=C(CBr)NCC(=O)N1CCN(C(=O)C23CC4CC(CC(C4)C2)C3)CC1 [N-[2-[4-(adamantane-1-carbonyl)piperazin-1-yl]-2-oxo-ethyl]-2-bromo-acetamide (6e)]
–,–,0.00875 µM,O=C(CCl)NCC(=O)N1CCN(C(=O)C23CC4CC(CC(C4)C2)C3)CC1 [N-[2-[4-(adamantane-1-carbonyl)piperazin-1-yl]-2-oxo-ethyl]-2-chloro-acetamide (6o)]
> 100 µM,> 100 µM,0.44 µM,C=CC(=O)NCC(=O)N1CCN(C(=O)OCc2ccc3ccccc3c2)CC1 [2-Naphthylmethyl 4-[2-(prop-2-enoylamino)acetyl]piperazine-1-carboxylate (3c)]
–,–,0.029 µM,O=C(CBr)NCC(=O)N1CCN(C(=O)OCc2ccc3ccccc3c2)CC1 [2-Naphthylmethyl 4-[2-[(2-bromoacetyl)amino]acetyl]piperazine-1-carboxylate (6c)]
–,–,0.00629 µM,O=C(CBr)NCC(=O)N1CCN(C(=O)OCC23CC4CC(CC(C4)C2)C3)CC1 [1-Adamantylmethyl 4-[2-[(2-bromoacetyl)amino]acetyl]piperazine-1-carboxylate (6f)]
